According to patent US11220504B2, “Pyrrolo[3,2-d] pyrimidine derivatives for the treatment of viral infections and other diseases” (JANSSEN SCIENCES IRELAND UNLIMITED COMPANY, priority 2012, dated 2022):

Assays:
human TLR8 = biological target: T1, human TLR8 (Homo sapiens, UniProt Q9NR97); test: TLR8 cellular reporter assay (HEK293, NFκB-luc); type: cell-based; conditions: HEK293 cells transfected with CMV-TLR8 and NFκB-luc, 6 hours incubation; lowest effective concentration
T1 construct: expressed in transfected cells; host or cells: HEK293 cells, transient transfection with TLR8 plasmid and NFκB-luc plasmid
T1 sequence (Q9NR97 27-1041): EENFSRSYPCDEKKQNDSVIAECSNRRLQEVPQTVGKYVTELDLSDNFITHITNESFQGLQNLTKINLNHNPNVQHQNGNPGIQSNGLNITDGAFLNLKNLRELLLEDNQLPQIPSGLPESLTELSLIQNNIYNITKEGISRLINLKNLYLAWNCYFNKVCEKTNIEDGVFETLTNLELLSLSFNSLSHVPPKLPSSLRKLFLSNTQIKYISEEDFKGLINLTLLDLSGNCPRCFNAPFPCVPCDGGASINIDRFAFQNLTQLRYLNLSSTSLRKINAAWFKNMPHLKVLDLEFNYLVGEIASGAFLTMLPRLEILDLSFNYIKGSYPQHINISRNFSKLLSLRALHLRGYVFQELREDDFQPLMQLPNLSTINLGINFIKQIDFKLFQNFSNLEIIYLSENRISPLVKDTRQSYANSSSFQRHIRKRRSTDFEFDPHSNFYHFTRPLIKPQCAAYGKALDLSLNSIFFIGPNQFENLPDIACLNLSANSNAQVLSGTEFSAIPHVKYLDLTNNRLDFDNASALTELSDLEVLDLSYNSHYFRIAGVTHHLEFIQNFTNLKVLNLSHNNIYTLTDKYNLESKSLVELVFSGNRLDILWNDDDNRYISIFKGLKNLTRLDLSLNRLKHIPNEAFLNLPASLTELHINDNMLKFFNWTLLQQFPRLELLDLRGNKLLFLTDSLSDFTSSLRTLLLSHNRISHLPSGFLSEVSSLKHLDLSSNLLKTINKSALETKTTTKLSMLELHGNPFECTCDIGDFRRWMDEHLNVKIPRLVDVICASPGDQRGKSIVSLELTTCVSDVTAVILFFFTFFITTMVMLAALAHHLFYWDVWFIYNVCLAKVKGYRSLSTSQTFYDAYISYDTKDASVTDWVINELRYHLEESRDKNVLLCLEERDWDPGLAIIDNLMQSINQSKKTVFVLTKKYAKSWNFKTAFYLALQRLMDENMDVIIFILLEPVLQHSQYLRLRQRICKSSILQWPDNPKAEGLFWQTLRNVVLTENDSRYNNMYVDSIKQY
Procedure: (§1) The ability of compounds to activate human TLR7 and/or TLR8 was assessed in a cellular reporter assay using HEK293 cells transiently transfected with a TLR7 or TLR8 expression vector and NFκB-luc reporter construct.
(§2) Briefly, HEK293 cells were grown in culture medium (DMEM supplemented with 10% FCS and 2 mM Glutamine). […] Thirty microliters of cells were then dispensed into each well in 384-well plates, where 10 μL of compound in 4% DMSO was already present. Following 6 hours incubation at 37° C., 5% CO2, the luciferase activity was determined by adding 15 μL of Steady Lite Plus substrate (Perkin Elmer) to each well and readout performed on a ViewLux ultraHTS microplate imager (Perkin Elmer). Dose response curves were generated from measurements performed in quadruplicates.

human TLR7 = biological target: T2, human TLR7 (Homo sapiens, UniProt Q9NYK1); test: TLR7 cellular reporter assay (HEK293, NFκB-luc); type: cell-based; conditions: HEK293 cells transfected with CMV-TLR7 and NFκB-luc, 6 hours incubation; lowest effective concentration
T2 construct: expressed in transfected cells; host or cells: HEK293 cells, transient transfection with CMV-TLR7 plasmid and NFκB-luc plasmid
T2 sequence (Q9NYK1 27-1049): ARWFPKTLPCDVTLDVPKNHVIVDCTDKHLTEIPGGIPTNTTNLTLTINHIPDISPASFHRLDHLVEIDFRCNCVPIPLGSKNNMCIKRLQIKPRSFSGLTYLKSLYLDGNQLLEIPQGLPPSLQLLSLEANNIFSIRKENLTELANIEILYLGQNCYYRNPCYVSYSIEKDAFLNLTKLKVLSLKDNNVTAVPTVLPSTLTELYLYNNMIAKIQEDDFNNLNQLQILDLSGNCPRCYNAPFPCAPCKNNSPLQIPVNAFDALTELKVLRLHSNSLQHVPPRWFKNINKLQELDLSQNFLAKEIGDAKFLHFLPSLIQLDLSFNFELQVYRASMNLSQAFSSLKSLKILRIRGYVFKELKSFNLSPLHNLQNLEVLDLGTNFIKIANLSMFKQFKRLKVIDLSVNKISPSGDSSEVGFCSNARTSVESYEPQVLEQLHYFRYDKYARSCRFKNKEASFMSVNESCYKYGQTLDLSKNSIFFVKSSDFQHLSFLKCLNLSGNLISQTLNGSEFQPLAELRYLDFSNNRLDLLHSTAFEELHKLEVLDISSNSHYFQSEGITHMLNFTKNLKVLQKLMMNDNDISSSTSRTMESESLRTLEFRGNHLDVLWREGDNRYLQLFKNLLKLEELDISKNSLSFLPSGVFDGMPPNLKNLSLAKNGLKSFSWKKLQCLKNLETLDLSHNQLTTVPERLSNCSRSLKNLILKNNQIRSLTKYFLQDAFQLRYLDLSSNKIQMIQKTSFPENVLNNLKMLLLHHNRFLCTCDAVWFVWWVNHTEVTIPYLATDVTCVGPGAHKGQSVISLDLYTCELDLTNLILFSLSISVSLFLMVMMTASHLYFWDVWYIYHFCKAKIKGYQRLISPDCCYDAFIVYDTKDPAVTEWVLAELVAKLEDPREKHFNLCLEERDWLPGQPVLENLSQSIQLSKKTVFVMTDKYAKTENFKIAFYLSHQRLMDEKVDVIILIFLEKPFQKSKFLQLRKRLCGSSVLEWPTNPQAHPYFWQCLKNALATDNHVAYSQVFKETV
Procedure: as §1, §2

[1] = test system: interferon-stimulated responsive elements (ISRE); test: Activation of ISRE promoter elements by conditioned media from PBMC (HEK-ISREluc); type: cell-based, human; conditions: Homo sapiens; conditioned media from PBMC transferred to HEK-ISREluc cells, 24 hours; lowest effective concentration; read-out: PBMC LEC
Procedure: The potential of compounds to induce IFN-I was also evaluated by measuring the activation of interferon-stimulated responsive elements (ISRE) by conditioned media from PBMC. The ISRE element of sequence […] (SEQ. ID NO:1) is highly responsive to the STAT1-STAT2-IRF 9 transcription factor, activated upon binding of IFN-I to their receptor IFNAR (Clontech, PT3372-5W). […] A HEK293 cell line stably transfected with pISRE-Luc (HEK-ISREluc) was established to profile of the conditioned PBMC cell culture media.
Briefly, PBMCs were prepared from buffy coats of at least two donors using a standard Ficoll centrifugation protocol. Isolated PBMCs were resuspended in RPMI medium supplemented with 10% human AB serum and 2×10^5 cells/well were dispensed into 384-well plates containing compounds (70 μL total volume). After overnight incubation, 10 μL of supernatant was transferred to 384-well plates containing 5×10^3 HEK-ISREluc cells/well in 30 μL (plated the day before). Following 24 hours of incubation, activation of the ISRE elements was measured by assaying luciferase activity using 40 μL/well Steady Lite Plus substrate (Perkin Elmer) and measured with ViewLux ultraHTS microplate imager (Perkin Elmer). The stimulating activity of each compound on the HEK-ISREluc cells was reported as LEC value, defined as the compound concentration applied to the PBMCs resulting in a luciferase activity at least two fold above the standard deviation of the assay. The LEC in turn indicates the degree of ISRE activation on transfer of a defined amount of PBMC culture medium. Recombinant interferon α-2a (Roferon-A) was used as a standard control compound.

Row | SMILES | TLR8 LEC (human TLR8) | TLR7 LEC (human TLR7) | minimal effective concentration [1]
1 | COc1cccc(Cn2ccc3nc(N)nc(NCc4cc(C)on4)c32)n1 [Compound 131] | 24.6 µM | – | –
2 | COCCNc1nc(N)nc2ccn(Cc3ncccc3OC)c12 [Compound 115] | 7.93 µM | 0.241 µM | 0.079 µM
3 | CCCC[C@@H](CCO)Nc1nc(N)nc2ccn(Cc3ccccn3)c12 [Compound 25] | 2.84 µM | 0.01 µM | 0.001 µM
4 | CCC[C@@H](CCO)Nc1nc(N)nc2ccn(CC3CCC3)c12 [Compound 82] | 0.57 µM | 0.07 µM | 0.01 µM
5 | CCCCNc1nc(N)nc2cc(C)n(Cc3ccccc3)c12 [Compound 63] | >25 µM | 0.67 µM | 0.18 µM
6 | CCCCNc1nc(N)nc2ccn(CC3CC3)c12 [Compound 53] | >25 µM | 0.38 µM | 0.07 µM
7 | Cc1cc(CNc2nc(N)nc3ccn(Cc4cc(C(F)(F)F)ccn4)c23)no1 [Compound 145] | >25 µM | – | –
8 | COCCn1ccc2nc(N)nc(NCc3cc(C)on3)c21 [Compound 128] | >25 µM | 0.342 µM | 0.062 µM
9 | CCCCNc1nc(N)nc2ccn(Cc3cc(F)ccc3Br)c12 [Compound 3] | >25 µM | 2.6 µM | 1.2 µM
10 | Nc1nc(NCc2nccs2)c2c(ccn2Cc2ccccn2)n1 [Compound 136] | >25 µM | – | –
11 | CCOCCNc1nc(N)nc2ccn(Cc3ccccn3)c12 [Compound 140] | >25 µM | – | –
12 | Cc1cc(CNc2nc(N)nc3ccn(Cc4ccccn4)c23)no1 [Compound 89] | >25 µM | – | –
13 | CCC(O)CNc1nc(N)nc2ccn(Cc3ccccn3)c12 (centres unmarked) [Compound 141] | >25 µM | – | –
14 | Cc1cc(CNc2nc(N)nc3ccn(Cc4ncccc4F)c23)no1 [Compound 125] | >25 µM | – | –
15 | Nc1nc(NCc2cc(C3CC3)on2)c2c(ccn2Cc2ccccn2)n1 [Compound 126] | >25 µM | – | –
16 | Nc1nc(NCc2ccon2)c2c(ccn2Cc2ccccn2)n1 [Compound 155] | >25 µM | – | –
17 | COCCCNc1nc(N)nc2ccn(Cc3ccccn3)c12 [Compound 138] | >25 µM | – | –
18 | CC(C)c1cc(CNc2nc(N)nc3ccn(Cc4ccccn4)c23)no1 [Compound 127] | >25 µM | – | –
19 | Cc1cc(CNc2nc(N)nc3ccn(Cc4ccc(C(F)(F)F)cn4)c23)no1 [Compound 122] | >25 µM | – | –
20 | COCCNc1nc(N)nc2ccn(Cc3ccccn3)c12 [Compound 119] | >25 µM | – | –
21 | Nc1nc(NCc2ncco2)c2c(ccn2Cc2ccccn2)n1 [Compound 142] | >25 µM | – | –
22 | COc1ccc(Cn2ccc3nc(N)nc(NCc4cc(C)on4)c32)nc1OC [Compound 124] | >22 µM | – | –
23 | Cc1cc(CNc2nc(N)nc3ccn(Cc4ccc(F)cn4)c23)no1 [Compound 144] | >25 µM | – | –

Further lines, with some results ahead:

Row | TLR8 LEC (human TLR8) | TLR7 LEC (human TLR7) | SMILES | minimal effective concentration [1]
24 | 11.4 µM | 0.17 µM | COCCn1ccc2nc(N)nc(NCc3cc(C4CC4)on3)c21 [Compound 200] | 0.035 µM
25 | >25 µM | – | Cc1cnc(CNc2nc(N)nc3ccn(Cc4ccccn4)c23)o1 [Compound 191] | –
26 | >25 µM | – | Cc1coc(CNc2nc(N)nc3ccn(Cc4ccccn4)c23)n1 [Compound 214] | –
27 | >25 µM | – | Cc1cc(CNc2nc(N)nc3ccn(Cc4cc(Cl)ccn4)c23)no1 [Compound 158] | –
28 | >25 µM | 0.02 µM | COc1ccc(Cn2ccc3nc(N)nc(NCc4cc(C)on4)c32)nc1 [Compound 171] | –
29 | >25 µM | – | C[C@@H](Nc1nc(N)nc2ccn(Cc3ccccn3)c12)c1ccccn1 (single isomer, unassigned) [Compound 194] | –
30 | 23 µM | – | Cc1cnc(CNc2nc(N)nc3ccn(Cc4ccccn4)c23)s1 [Compound 207] | –
31 | >25 µM | – | C[C@H](Nc1nc(N)nc2ccn(Cc3ccccn3)c12)c1ccccn1 (single isomer, unassigned) [Compound 195] | –
32 | >25 µM | – | Cc1nc(CNc2nc(N)nc3ccn(Cc4ccccn4)c23)cs1 [Compound 174] | –
33 | >25 µM | – | Cc1cc(CNc2nc(N)nc3ccn(Cc4ccccn4)c23)on1 [Compound 184] | –
34 | >25 µM | – | Cc1ccc(CNc2nc(N)nc3ccn(Cc4ccccn4)c23)nc1 [Compound 189] | –
35 | >25 µM | – | CC(Nc1nc(N)nc2ccn(Cc3ccccn3)c12)c1ccccn1 (centres unmarked) [Compound 190] | –
36 | >25 µM | – | Cc1nnc(CNc2nc(N)nc3ccn(Cc4ccccn4)c23)o1 [Compound 216] | –
37 | >25 µM | – | Cc1cc(CNc2nc(N)nc3ccn(Cc4ncccc4Cl)c23)no1 [Compound 156] | –
38 | >25 µM | – | COc1cccnc1Cn1ccc2nc(N)nc(NCc3cc(C)on3)c21 [Compound 170] | –
39 | – | 4.88 µM | COCCNc1nc(N)nc2ccn(CC(=O)N(C)C)c12 [Compound 166] | –
